Laboratory results reported in patent publication US10059655B2, “Lipids and lipid compositions for the delivery of active agents” (priority 2013, dated 2018).

Experiments:
[1] = Measurement of mRNA encapsulation in lipid nanoparticles (Quant-iT Ribogreen); format: physicochemical; details: Leptin mRNA in LNP
Description: All equipment and disposable supplies are certified free of RNase activity by the manufacturer or rendered RNase free by use of the RNaseZap reagent (LifeTechnologies). mRNA is encapsulated at a cationic lipid amine to mRNA phosphate (N:P) molar ratio of 4:1. Lipids (cationic lipid, DSPC, cholesterol and lipidated PEG or stealth lipid) are dissolved in ethanol. The molar ratios are 40:10:38:2, respectively. The mixture is sonicated briefly, then gently agitated for 5 minutes and then maintained at 37° C. until use. mRNA is exchanged into citrate buffer pH 5.8-6.0 by use of Amicon Ultra-15 centrifugal concentrators, and the final concentration is adjusted to 0.5 mg/ml and held at 37° C. until use. An equal volume of lipids in ethanol, mRNA in citrate buffer, and citrate buffer alone are drawn into disposable syringes.
Tubing leading from syringes containing lipids and mRNA are attached to the T junction, and tubing leading from the syringe containing citrate buffer alone is paired with the tubing exiting the T-junction over a collection vessel containing a stir bar on an active stir plate. Syringes are placed in a syringe pump set to expel contents at a flow rate of 1 ml per minute. The pump is activated, and the collected mRNA in lipid nanoparticles is transferred to SnakeSkin dialysis tubing (10,000 MWCO, Thermo Scientific). Material is dialyzed against RNAse- and pyrogen-free 1× phosphate buffered saline overnight at 4° C.
Percent encapsulation of mRNA in lipid nanoparticles is determined using the Quant-iT Ribogreen RNA Assay kit (Life Technologies). The LNP-mRNA suspension is assayed in buffer (mRNA outside the particle), and buffer plus Triton X-100 detergent (total mRNA). The difference calculated is the mRNA inside the particle. Prepare a 1000 ng/mL stock from the RNA provided in the kit and use this to generate a standard curve (0 ng/ml, 15.63-1000 ng/ml) in TE and TE+0.75% Triton X-100. Prepare LNP-mRNA samples in TE buffer and TE buffer+0.75% Triton X-100 with appropriate dilution so that reading is in the range of standard curve (400-2,000 fold). In a 384-well plate (Costar non-treated #3573) add 0.04 ml of standard (in duplicate) or sample (in triplicate) per well. Dilute Ribogreen reagent 240-fold in TE buffer and add 0.06 ml per well. Mix contents of wells and measure fluorescence (excitation=480 nm, emission=520 nm). Subtract background values (no RNA) from standard and test sample values and determine the concentrations of RNA in the samples using the standard curves. Determine the percent encapsulation of the sample by dividing the difference in concentrations between sample+triton and sample in buffer alone by the sample+triton concentration.

[2] = Particle size of the lipid nanoparticle (Z-average, dynamic light scattering, Malvern Zetasizer); format: physicochemical; details: RSV-F replicon RNA LNP, DLS
Source text: The lipid nanoparticles have a size of about 1 to about 2,500 nm, about 10 to about 1,500 nm, about 20 to about 1,000 nm, in a sub-embodiment about 50 to about 600 nm, in a sub-embodiment about 50 to about 400 nm, in a sub-embodiment about 50 to about 250 nm, and in a sub-embodiment about 50 to about 150 nm. Unless indicated otherwise, all sizes referred to herein are the average sizes (diameters) of the fully formed nanoparticle, as measured by dynamic light scattering on a Malvern Zetasizer. The nanoparticle sample is diluted in phosphate buffered saline (PBS) so that the count rate is approximately 200-400 kcts. The data is presented as a weighted average of the intensity measure.
Unless indicated otherwise, all particle size measurements referred to in Table 3 are the Z-average particle size of the fully formed nanoparticle, as measured by dynamic light scattering on a Malvern Zetasizer. The nanoparticle sample was diluted in phosphate buffered saline (PBS) so that the count rate is approximately 200-400 kcts.
(§1) % entrapment (% E), Concentration of RNA (Conc), particle size measured by DLS, and polydispersity reported by DLS of LNPs prepared with different cationic lipids

[3] = Polydispersity index (PDI) by dynamic light scattering; format: physicochemical; details: RSV-F replicon RNA LNP, DLS
Description: Unless indicated otherwise, all PDIs referred to herein are the PDI of the fully formed nanoparticle, as measured by dynamic light scattering on a Malvern Zetasizer. The nanoparticle sample was diluted in phosphate buffered saline (PBS) so that the count rate was approximately 200-400 kcts. The data is presented in Table 3 as a weighted average of the intensity measure.
as §1

RSV F protein = assay: RSV immunogenicity: F-specific IgG titers after IM vaccination with liposome-formulated self-replicating RNA; format: in vivo; details: IM days 0 and 21, BALB/c mice, two weeks after two immunizations
[4] = Percentage of encapsulated RNA and RNA concentration of replicon liposomes (Quant-iT RiboGreen); format: physicochemical
Description: RNA was encapsulated in liposomes made essentially by the method of Geall et al. (2012) PNAS vol. 109 (36): 14604-14609, Jeffs et al. (2005) Pharmaceutical Research 22 (3):362-372, and Maurer et al. (2001) Biophysical Journal, 80: 2310-2326 The liposomes were made of 10% DSPC (zwitterionic), 40% cationic lipid, 48% cholesterol and 2% PEG-conjugated DMG (2 kDa PEG). These proportions refer to the % moles in the total liposome.
Briefly, lipids were dissolved in ethanol (2 ml), a RNA replicon was dissolved in buffer (2 ml, 100 mM sodium citrate, pH 6) and these were mixed with 2 ml of buffer followed by 1 hour of equilibration. The mixture was then dialized overnight against 1×PBS. The resulting product contained liposomes, with ˜70-95% encapsulation efficiency. For in vitro and in vivo experiments formulations were diluted to the required RNA concentration with 1×PBS.
The percentage of encapsulated RNA and RNA concentration were determined by Quant-iT RiboGreen RNA reagent kit (Invitrogen), following manufacturer's instructions. The ribosomal RNA standard provided in the kit was used to generate a standard curve. Liposomes were diluted 10× or 100× in 1×TE buffer (from kit) before addition of the dye. Separately, liposomes were diluted 10× or 100× in 1×TE buffer containing 0.5% Triton X before addition of the dye (to disrupt the liposomes and thus to assay total RNA). Thereafter an equal amount of dye was added to each solution and then ˜180 μL of each solution after dye addition was loaded in duplicate into a 96 well tissue culture plate. The fluorescence (Ex 485 nm, Em 528 nm) was read on a microplate reader. All liposome formulations were dosed in vivo based on the encapsulated amount of RNA.
as §1

[5] = RSV-F replicon RNA LNP prepared for 1st immunization
[6] = RSV-F replicon RNA LNP prepared for 2nd immunization

% encapsulation mRNA Leptin [1]	SMILES	other results
86.0%	CCCCCCCCOC(CCC(=O)OCC(COC(=O)CCC(OCCCCCCCC)OCCCCCCCC)COC(=O)C1(C)CCN(C)C1)OCCCCCCCC (stereo not shown) [Example 58, 2-(((1,3-dimethylpyrrolidine-3-carbonyl)oxy)methyl)propane-1,3-diyl bis(4,4-bis(octyloxy)butanoate)]	
76.6%	CCCCCCCCOC(CCC(=O)OCC(COC(=O)CCC(OCCCCCCCC)OCCCCCCCC)COC(=O)CCN(C)C)OCCCCCCCC [Example 59, 2-(((3-(dimethylamino)propanoyl)oxy)methyl)propane-1,3-diyl bis(4,4-bis(octyloxy)butanoate)]	
89.1%	CCCCCCCCOC(CCCCC(=O)OCC(COC(=O)CCCCC(OCCCCCCCC)OCCCCCCCC)COC(=O)C1CCN(C)C1)OCCCCCCCC (stereo not shown) [Example 60, 2-(((1-methylpyrrolidine-3-carbonyl)oxy)methyl)propane-1,3-diyl bis(6,6-bis(octyloxy)hexanoate)]	
18.8%	CCCCCCCCCCCCCCCC(=O)OCC(COC(=O)CCCCC(COC(=O)CCCCCCC)COC(=O)CCCCCCC)COC(=O)C1CCN(C)C1 (stereo not shown) [Example 63, 2-(5-(3-((1-methylpyrrolidine-3-carbonyl)oxy)-2-((palmitoyloxy)methyl)propoxy)-5-oxopentyl)propane-1,3-diyl dioctanoate]	
87.9%	CCCCCCCCCCCCCC(=O)OCC(COC(=O)CCCCC(COC(=O)CCCCCCC)COC(=O)CCCCCCC)COC(=O)C1CCN(C)C1 (stereo not shown) [Example 64, 2-(5-(3-((1-methylpyrrolidine-3-carbonyl)oxy)-2-((tetradecanoyloxy)methyl)propoxy)-5-oxopentyl)propane-1,3-diyl dioctanoate]	
70.5%	CCCCCCCCCCCCCC(=O)OCC(COC(=O)CCC(OCCCCCCCC)OCCCCCCCC)COC(=O)C1CCN(C)C1 (stereo not shown) [Example 66, 3-((4,4-bis(octyloxy)butanoyl)oxy)-2-((tetradecanoyloxy)methyl)propyl 1-methylpyrrolidine-3-carboxylate]	
62.8%	CCCCCCCCCCCCCCCC(=O)OCC(COC(=O)CCC(OCCCCCCCC)OCCCCCCCC)COC(=O)C1CCN(C)C1 (stereo not shown) [Example 67, 3-((4,4-bis(octyloxy)butanoyl)oxy)-2-((palmitoyloxy)methyl)propyl 1-methylpyrrolidine-3-carboxylate]	
5.9%	CCCCCCCCOC(CCC(=O)OCC(COC(=O)CCCCCCC(=O)OC)COC(=O)C1CCN(C)C1)OCCCCCCCC (stereo not shown) [Example 68, 1-(3-((4,4-bis(octyloxy)butanoyl)oxy)-2-(((1-methylpyrrolidine-3-carbonyl)oxy)methyl)propyl) 8-methyl octanedioate]	
79.3%	CCCCCCCCOC(=O)CCCCCCCCC(=O)OCC(COC(=O)CCC(OCCCCCCCC)OCCCCCCCC)COC(=O)C1CCN(C)C1 (stereo not shown) [Example 69, 1-(3-((4,4-bis(octyloxy)butanoyl)oxy)-2-(((1-methylpyrrolidine-3-carbonyl)oxy)methyl)propyl) 10-octyl decanedioate]	
92.1%	CCCCCCCCCCCCC(CCOC(=O)OCC(COC(=O)CCCCCCC(=O)OC)COC(=O)CCC(OCCCCCCCC)OCCCCCCCC)OC(=O)OCCCN(C)C (stereo not shown) [Example 70, 1-(16-(((4,4-bis(octyloxy)butanoyl)oxy)methyl)-9-dodecyl-2-methyl-7,13-dioxo-6,8,12,14-tetraoxa-2-azaheptadecan-17-yl) 8-methyl octanedioate]	
96.5%	CCCCCCCCOC(=O)CCCCCCCCC(=O)OCC(COC(=O)CCCCC(OCC(CCC)CCC)OCC(CCC)CCC)COC(=O)C1(C)CCN(C)CC1 (stereo not shown) [Example 71, 1-(3-((6,6-bis((2-propylpentyl)oxy)hexanoyl)oxy)-2-(((1,4-dimethylpiperidine-4-carbonyl)oxy)methyl)propyl) 10-octyl decanedioate]	
31.2%	CCCC(CCC)COC(CCCCC(=O)OCC(COC(=O)CCCCCCC(=O)OC)COC(=O)C1(C)CCN(C)CC1)OCC(CCC)CCC (stereo not shown) [Example 72, 1-(3-((6,6-bis((2-propylpentyl)oxy)hexanoyl)oxy)-2-(((1,4-dimethylpiperidine-4-carbonyl)oxy)methyl)propyl) 8-methyl octanedioate]	
9.3%	COC(=O)CCCCCCC(=O)OCC(COC(=O)CCCCCCC(=O)OC)COC(=O)C1CCN(C)C1 (stereo not shown) [Example 73, 8-dimethyl O′1,O1-(2-(((1-methylpyrrolidine-3-carbonyl)oxy)methyl)propane-1,3-diyl)dioctanedioate]	
23.0%	CCCCCCCCCCCCC(CCOC(=O)OCC(COC(=O)CCCCCCC(=O)OC)COC(=O)CCCCCCC(=O)OC)OC(=O)OCCCN(C)C (stereo not shown) [Example 74, O′1,O1-(2-(7-dodecyl-14-methyl-3,9-dioxo-2,4,8,10-tetraoxa-14-azapentadecyl)propane-1,3-diyl) 8-dimethyl dioctanedioate]	

SMILES	% encapsulation mRNA Leptin [1]	other results
CCCCC/C=C\C/C=C\CCCCCCCC(=O)OCC(COC(=O)CCC(OCCCCCCCC)OCCCCCCCC)COC(=O)CCN(C)C (stereo not shown) [Example 32, (9Z,12Z)-3-((4,4-bis(octyloxy)butanoyl)oxy)-2-(((3-(dimethylamino)propanoyl)oxy)methyl)propyl octadeca-9,12-dienoate]	97.1%	Size 1st IM ([2]; 1st immunization): 136.2 nm; Size 2nd IM ([2]; 2nd immunization): 135 nm; PDI 1st IM ([3]; 1st immunization): 0.147; PDI 2nd IM ([3]; 2nd immunization): 0.088; Immunogenicity (2wp2; log10 IgG titers) (RSV F protein; 0.1 ng replicon RNA): 4.77 log10 IgG titers; Immunogenicity (2wp2; log10 IgG titers) (RSV F protein; 1 ng replicon RNA): 4.92 log10 IgG titers; %E (% entrapment) 1st IM [4, 5]: 92.6%; Conc (Concentration of RNA) 1st IM [4, 5]: 8810 ng/mL; %E (% entrapment) 2nd IM [4, 6]: 94.72%; Conc (Concentration of RNA) 2nd IM [4, 6]: 9653 ng/mL
